# Values of other authors in US20220047724A1, “NOVEL TRICARBOCYANINE-CYCLODEXTRIN(S) CONJUGATES AND USE THEREOF” (CYANAGEN S.R.L., priority 2014, published 2022).
# Like-named read-outs stand apart in the source and are kept apart here.
# Key:
# [1] = Sigma-Aldrich Product No. H-107, vendor data
Substance,"Toxicity (rabbits; rabbit, in vivo)",Water solubility [1] [g/100 mL],"Toxicity (mice; mouse, in vivo)",Toxicity (rabbits; rabbits),Toxicity (mice; mice)
2-hydroxypropyl-β-cyclodextrin [HβCD],non-toxic,45,non-toxic,,
2-hydroxypropyl-γ-cyclodextrin [HγCD],,,,non-toxic,non-toxic
